Laboratory results taken from patent US12570655B2, “Cysteine covalent modifiers of AKT1 and uses thereof” (Terremoto Biosciences, Inc., priority 2023, dated 2026).

Experiments:
Type in all cases: cell-based
[1] = target: T1, AKT2 (Homo sapiens, UniProt P31751); assay: Live cell AKT2 target engagement by NanoBRET competitive probe displacement; conditions: HEK293 cells transfected with kinase-NanoLuciferase fusion, 2 h at 37° C.
T1 construct: expressed in transfected cells; host or cells: HEK293
Procedure, shortened: (§1)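 IC50 reflects displacement of a fluorescent ATP-competitive tracer, dosed near its EC50, from kinase–NanoLuciferase fusions in live HEK293 cells. Cells were incubated with compound and tracer for 2 h at 37 °C, then E600/E460 BRET was read.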

[2] = target: T2, AKT1 WT (Homo sapiens, UniProt P31749); assay: Live cell AKT1 WT target engagement by NanoBRET competitive probe displacement; conditions: HEK293 cells transfected with kinase-NanoLuciferase fusion, 2 h at 37° C.
T2 construct: expressed in transfected cells; host or cells: HEK293
Procedure, shortened: as §1

[3] = test system: LAPC4 prostate cancer cells; assay: Antiproliferative effects in LAPC4 cells (CellTiter Glo); conditions: LAPC4 cells (AKT1 E17K allele), 72 h, read-out: LAPC4 proliferation IC50
Procedure, shortened: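 Seed 1,000 cells/well in IMDM/12% FBS/1% P/S; add compound dilutions (DMSO); incubate 72 h; read intracellular ATP with CellTiter Glo; fit luminescence to log(inhibitor)-response Hill curve for IC50.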

[4] = target: T3, AKT1 E17K (Homo sapiens, UniProt P31749, E17K); assay: Live cell AKT1 E17K target engagement by NanoBRET competitive probe displacement; conditions: HEK293 cells transfected with kinase-NanoLuciferase fusion, 2 h at 37° C.
T3 construct: expressed in transfected cells; host or cells: HEK293
Procedure, shortened: as §1

T2 sequence (P31749 whole entry, the tested form may be a part): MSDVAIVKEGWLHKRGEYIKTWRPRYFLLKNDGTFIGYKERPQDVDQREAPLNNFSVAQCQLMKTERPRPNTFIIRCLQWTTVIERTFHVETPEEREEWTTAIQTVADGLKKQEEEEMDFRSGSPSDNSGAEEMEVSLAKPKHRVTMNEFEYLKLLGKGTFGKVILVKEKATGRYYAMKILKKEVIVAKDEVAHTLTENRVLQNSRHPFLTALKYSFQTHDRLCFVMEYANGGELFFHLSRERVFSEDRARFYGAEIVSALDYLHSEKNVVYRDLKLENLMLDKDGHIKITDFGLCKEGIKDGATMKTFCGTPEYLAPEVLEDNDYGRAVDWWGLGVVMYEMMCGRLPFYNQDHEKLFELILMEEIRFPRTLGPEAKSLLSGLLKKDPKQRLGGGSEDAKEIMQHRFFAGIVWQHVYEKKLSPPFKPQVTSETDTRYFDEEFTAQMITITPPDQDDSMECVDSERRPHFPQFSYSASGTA
T1 sequence (P31751 whole entry, the tested form may be a part): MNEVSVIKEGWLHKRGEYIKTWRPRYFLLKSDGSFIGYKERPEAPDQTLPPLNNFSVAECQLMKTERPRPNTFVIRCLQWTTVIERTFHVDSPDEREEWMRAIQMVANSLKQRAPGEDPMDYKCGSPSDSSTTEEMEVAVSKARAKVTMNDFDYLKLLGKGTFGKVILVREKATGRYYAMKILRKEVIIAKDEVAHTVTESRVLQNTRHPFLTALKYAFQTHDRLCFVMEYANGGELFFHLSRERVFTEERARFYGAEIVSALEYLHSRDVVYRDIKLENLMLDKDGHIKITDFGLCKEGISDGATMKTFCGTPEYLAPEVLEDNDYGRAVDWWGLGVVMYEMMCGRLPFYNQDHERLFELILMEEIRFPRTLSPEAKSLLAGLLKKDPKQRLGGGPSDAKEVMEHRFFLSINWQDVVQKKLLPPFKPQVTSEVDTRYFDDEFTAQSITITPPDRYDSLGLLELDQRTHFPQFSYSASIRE
T3 sequence (P31749 whole entry E17K, the tested form may be a part): as the sequence (P31749 whole entry, the tested form may be a part) above, with E17K counted along it

| Structure (SMILES) | IC50 [1] | IC50 [2] | IC50 [3] | IC50 [4] |
| --- | --- | --- | --- | --- |
| C=CC(=O)N1CC2(CCC(N[C@H]3CCc4cc(-n5c(-c6cccnc6N)nc6ccc(-n7cccn7)nc65)ccc43)C2)C1 (single isomer, unassigned) [Example 91, 1-((*)-6-(((S)-5-(2-(2-aminopyridin-3-yl)-5-(1H-pyrazol-1-yl)-3H-imidazo[4,5-b]pyridin-3-yl)-2,3-dihydro-1H-inden-1-yl)amino)-2-azaspiro[3.4]octan-2-yl)prop-2-en-1-one] | 558 nM | 36.6 nM | 351 nM | 116 nM |
| C=CC(=O)N1CC2(CCC(N[C@H]3CCc4cc(-n5c(-c6cccnc6N)nc6ccc(-n7cccn7)nc65)ccc43)C2)C1 (single isomer, unassigned) [Example 92, 1-((*)-6-(((S)-5-(2-(2-aminopyridin-3-yl)-5-(1H-pyrazol-1-yl)-3H-imidazo[4,5-b]pyridin-3-yl)-2,3-dihydro-1H-inden-1-yl)amino)-2-azaspiro[3.4]octan-2-yl)prop-2-en-1-one] | 58.8 nM | 6.94 nM | 30.7 nM | 18.9 nM |
| C=CC(=O)N1CCC(N[C@H]2CCc3cc(-n4c(-c5cccnc5N)nc5ccc(-n6cccn6)nc54)ccc32)CC12CCC2 (single isomer, unassigned) [Example 93, 1-((*)-8-(((S)-5-(2-(2-aminopyridin-3-yl)-5-(1H-pyrazol-1-yl)-3H-imidazo[4,5-b]pyridin-3-yl)-2,3-dihydro-1H-inden-1-yl)amino)-5-azaspiro[3.5]nonan-5-yl)prop-2-en-1-one] | 11.4 nM | 5.63 nM | 5.02 nM | 6.16 nM |
| C=CC(=O)N1CCC(N[C@H]2CCc3cc(-n4c(-c5cccnc5N)nc5ccc(-n6cccn6)nc54)ccc32)CC12CCC2 (single isomer, unassigned) [Example 94, 1-((*)-8-(((S)-5-(2-(2-aminopyridin-3-yl)-5-(1H-pyrazol-1-yl)-3H-imidazo[4,5-b]pyridin-3-yl)-2,3-dihydro-1H-inden-1-yl)amino)-5-azaspiro[3.5]nonan-5-yl)prop-2-en-1-one] | 2640 nM | 147 nM | 1170 nM | 652 nM |
| C=CC(=O)N1CCC(N[C@H]2CCc3cc(-n4c(-c5cccnc5N)nc5ccc(-n6cccn6)nc54)ccc32)C(C)C1 (single isomer, unassigned) [Example 99, 1-((3*,4*)-4-(((S)-5-(2-(2-aminopyridin-3-yl)-5-(1H-pyrazol-1-yl)-3H-imidazo[4,5-b]pyridin-3-yl)-2,3-dihydro-1H-inden-1-yl)amino)-3-methylpiperidin-1-yl)prop-2-en-1-one] | 560 nM | 33.4 nM | 716 nM | 89.4 nM |
| C=CC(=O)N1CCC(N[C@H]2CCc3cc(-n4c(-c5cccnc5N)nc5ccc(-n6cccn6)nc54)ccc32)C(C)C1 (single isomer, unassigned) [Example 100, 1-((3*,4*)-4-(((S)-5-(2-(2-aminopyridin-3-yl)-5-(1H-pyrazol-1-yl)-3H-imidazo[4,5-b]pyridin-3-yl)-2,3-dihydro-1H-inden-1-yl)amino)-3-methylpiperidin-1-yl)prop-2-en-1-one] | 135 nM | 9.09 nM | 187 nM | 53.6 nM |
| C=CC(=O)N1CCC(N[C@H]2CCc3cc(-n4c(-c5cccnc5N)nc5ccc(-n6cccn6)nc54)ccc32)C(C)C1 (single isomer, unassigned) [Example 101, 1-((3*,4*)-4-(((S)-5-(2-(2-aminopyridin-3-yl)-5-(1H-pyrazol-1-yl)-3H-imidazo[4,5-b]pyridin-3-yl)-2,3-dihydro-1H-inden-1-yl)amino)-3-methylpiperidin-1-yl)prop-2-en-1-one] | 290 nM | 18.3 nM | 270 nM | 82.3 nM |
| C=CC(=O)N1CCC(N[C@H]2CCc3cc(-n4c(-c5cccnc5N)nc5ccc(-n6cccn6)nc54)ccc32)C(C)C1 (single isomer, unassigned) [Example 102, 1-((3*,4*)-4-(((S)-5-(2-(2-aminopyridin-3-yl)-5-(1H-pyrazol-1-yl)-3H-imidazo[4,5-b]pyridin-3-yl)-2,3-dihydro-1H-inden-1-yl)amino)-3-methylpiperidin-1-yl)prop-2-en-1-one] | 101 nM | 8.09 nM | 147 nM | 35.4 nM |
| C=CC(=O)N1CCC(N[C@H]2CCc3cc(-n4c(-c5cccnc5N)nc5ccc(-n6cccn6)nc54)ccc32)C(F)C1 (single isomer, unassigned) [Example 103, 1-((3*,4*)-4-(((S)-5-(2-(2-aminopyridin-3-yl)-5-(1H-pyrazol-1-yl)-3H-imidazo[4,5-b]pyridin-3-yl)-2,3-dihydro-1H-inden-1-yl)amino)-3-fluoropiperidin-1-yl)prop-2-en-1-one] | 547 nM | 19.3 nM | 317 nM | 80.1 nM |
| C=CC(=O)N1CCC(N[C@H]2CCc3cc(-n4c(-c5cccnc5N)nc5ccc(-n6cccn6)nc54)ccc32)C(F)C1 (single isomer, unassigned) [Example 104, 1-((3*,4*)-4-(((S)-5-(2-(2-aminopyridin-3-yl)-5-(1H-pyrazol-1-yl)-3H-imidazo[4,5-b]pyridin-3-yl)-2,3-dihydro-1H-inden-1-yl)amino)-3-fluoropiperidin-1-yl)prop-2-en-1-one] | 92.7 nM | 4.52 nM | 120 nM | 20.6 nM |

Results, then the molecule that gave them:

| IC50 [1] | IC50 [2] | IC50 [3] | IC50 [4] | Structure (SMILES) |
| --- | --- | --- | --- | --- |
| 180 nM | 21.5 nM | 87.7 nM | 48.7 nM | C=CC(=O)N1[C@H](C)CC(N[C@H]2CCc3cc(-n4c(-c5cccnc5N)nc5ccc(-n6cccn6)nc54)ccc32)C[C@@H]1C (single isomer, unassigned) [Example 88, 1-((2S,4*,6R)-4-(((R)-5-(2-(2-aminopyridin-3-yl)-5-(1H-pyrazol-1-yl)-3H-imidazo[4,5-b]pyridin-3-yl)-2,3-dihydro-1H-inden-1-yl)amino)-2,6-dimethylpiperidin-1-yl)prop-2-en-1-one] |
| 75.2 nM | 8.15 nM | 74.9 nM | 22.9 nM | C=CC(=O)NC1CC(N[C@H]2CCc3cc(-n4c(-c5cccnc5N)nc5ccc(-n6cccn6)nc54)ccc32)C1 (single isomer, unassigned) [Example 89, N-((1*,3*)-3-(((S)-5-(2-(2-aminopyridin-3-yl)-5-(1H-pyrazol-1-yl)-3H-imidazo[4,5-b]pyridin-3-yl)-2,3-dihydro-1H-inden-1-yl)amino)cyclobutyl)acrylamide] |
| 109 nM | 41.2 nM | 351 nM | 156 nM | C=CC(=O)NC1CC(N[C@H]2CCc3cc(-n4c(-c5cccnc5N)nc5ccc(-n6cccn6)nc54)ccc32)C1 (single isomer, unassigned) [Example 90, N-((1*,3*)-3-(((S)-5-(2-(2-aminopyridin-3-yl)-5-(1H-pyrazol-1-yl)-3H-imidazo[4,5-b]pyridin-3-yl)-2,3-dihydro-1H-inden-1-yl)amino)cyclobutyl)acrylamide] |
| 50.1 nM | 4.51 nM | 53 nM | 14.8 nM | C=CC(=O)N1CCC(N[C@H]2CCc3cc(-n4c(-c5cccnc5N)nc5ccc(-n6cccn6)nc54)ccc32)C(F)C1 (single isomer, unassigned) [Example 105, 1-((3*,4*)-4-(((S)-5-(2-(2-aminopyridin-3-yl)-5-(1H-pyrazol-1-yl)-3H-imidazo[4,5-b]pyridin-3-yl)-2,3-dihydro-1H-inden-1-yl)amino)-3-fluoropiperidin-1-yl)prop-2-en-1-one] |
| 120 nM | 3.85 nM | 93 nM | 20.3 nM | C=CC(=O)N1CCC(N[C@H]2CCc3cc(-n4c(-c5cccnc5N)nc5ccc(-n6cccn6)nc54)ccc32)C(F)C1 (single isomer, unassigned) [Example 106, 1-((3*,4*)-4-(((S)-5-(2-(2-aminopyridin-3-yl)-5-(1H-pyrazol-1-yl)-3H-imidazo[4,5-b]pyridin-3-yl)-2,3-dihydro-1H-inden-1-yl)amino)-3-fluoropiperidin-1-yl)prop-2-en-1-one] |
| 143 nM | 21.6 nM | 343 nM | 127 nM | C#CC1CC(N[C@H]2CCc3cc(-n4c(-c5cccnc5N)nc5ccc(-n6cccn6)nc54)ccc32)CCN1C(=O)C=C (single isomer, unassigned) [Example 111, 1-((2*,4*)-4-(((S)-5-(2-(2-aminopyridin-3-yl)-5-(1H-pyrazol-1-yl)-3H-imidazo[4,5-b]pyridin-3-yl)-2,3-dihydro-1H-inden-1-yl)amino)-2-ethynylpiperidin-1-yl)prop-2-en-1-one] |
| 17.6 nM | 9.52 nM | 11.8 nM | 8.06 nM | C#CC1CC(N[C@H]2CCc3cc(-n4c(-c5cccnc5N)nc5ccc(-n6cccn6)nc54)ccc32)CCN1C(=O)C=C (single isomer, unassigned) [Example 112, 1-((2*,4*)-4-(((S)-5-(2-(2-aminopyridin-3-yl)-5-(1H-pyrazol-1-yl)-3H-imidazo[4,5-b]pyridin-3-yl)-2,3-dihydro-1H-inden-1-yl)amino)-2-ethynylpiperidin-1-yl)prop-2-en-1-one] |
